Measured values reported in ChEMBL document CHEMBL2176951, “Molecular mechanisms of acquired proteasome inhibitor resistance” (J Med Chem, 2012).
pIC50: −log10 of the molar value.

Experiments:
[1] = target: Proteasome Macropain subunit (Homo sapiens) (UniProt P49721); assay: Ratio of Kinact to Ki for human 20S proteasome subunit beta2
[2] = target: T1, Proteasome component C5 (Homo sapiens) (UniProt P20618); assay: Ratio of Kinact to Ki for human 20S proteasome subunit beta1
T1 sequence (whole entry): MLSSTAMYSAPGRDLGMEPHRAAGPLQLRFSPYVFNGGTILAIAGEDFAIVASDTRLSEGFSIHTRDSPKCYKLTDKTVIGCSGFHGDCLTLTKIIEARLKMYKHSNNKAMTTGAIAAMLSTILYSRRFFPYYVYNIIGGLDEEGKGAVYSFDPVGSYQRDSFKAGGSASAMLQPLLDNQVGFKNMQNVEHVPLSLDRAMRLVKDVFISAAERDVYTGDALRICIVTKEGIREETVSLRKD

[3] = target: T2, Proteasome Macropain subunit MB1 (Homo sapiens) (UniProt P28074); assay: Ratio of Kinact to Ki for human 20S proteasome subunit beta5
T2 sequence (whole entry): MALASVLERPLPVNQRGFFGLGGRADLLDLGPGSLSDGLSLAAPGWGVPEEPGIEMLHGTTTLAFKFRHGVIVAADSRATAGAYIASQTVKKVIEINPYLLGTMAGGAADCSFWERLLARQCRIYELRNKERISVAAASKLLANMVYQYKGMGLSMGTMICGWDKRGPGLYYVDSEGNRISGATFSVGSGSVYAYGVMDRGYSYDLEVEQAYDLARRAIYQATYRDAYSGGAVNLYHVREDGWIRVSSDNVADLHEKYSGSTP

[4] = organism: Homo sapiens; assay: P-gp-mediated drug resistance in human CEM/VLB cells relative to control; assay type: cell-based
[5] = test system: RPMI-8226; assay: Resistance factor, ratio of IC50 for 100 nM bortezonib-resistant human RPMI8226 cells harboring proteosome subunit beta5 A49T mutant to IC50 for wild type human RPMI8226 cells; assay type: functional
[6] = target: T3, Proteasome Macropain subunit MB1 (Homo sapiens, UniProt P28074); assay: Reversible inhibition of human erythrocyte derived 20S proteasome subunit beta5 after 30 mins by fluorogenic assay
T3 sequence (P28074 whole entry): T2 sequence (whole entry)

[7] = test system: SW1573; assay: Effect on 20S proteasome subunit beta5 expression in human SW1573 cells at 150 nM relative to control; assay type: functional; conditions: pooled result: one value given for 7 cell lines, strains, targets or settings
[8] = test system: HT-29; assay: Effect on 20S proteasome subunit beta5 expression in human HT-29 cells at 200 nM relative to control; assay type: functional
[9] = test system: HT-29; assay: Effect on 20S proteasome subunit beta5 expression in human HT-29 cells at 100 nM relative to control; assay type: functional
[10] = test system: THP-1; assay: Effect on 20S proteasome subunit beta5 expression in human THP1 cells at 200 nM relative to control; assay type: functional
[11] = test system: THP-1; assay: Effect on 20S proteasome subunit beta5 expression in human THP1 cells at 100 nM relative to control; assay type: functional
[12] = test system: THP-1; assay: Effect on 20S proteasome subunit beta5 expression in human THP1 cells at 50 nM relative to control; assay type: functional
[13] = test system: THP-1; assay: Effect on 20S proteasome subunit beta5 expression in human THP1 cells at 30 nM relative to control; assay type: functional
[14] = test system: RPMI-8226; assay: Effect on PSMB5 mRNA expression in human RPMI8226 cells at 7 nM relative to control; assay type: functional
[15] = test system: RPMI-8226; assay: Effect on PSMB5 mRNA expression in human RPMI8226 cells at 100 nM relative to control; assay type: functional
[16] = Effect on PSMB5 mRNA expression in human Jurkat-B cells expressing PSMB5 C323T mutant at 1000 nM relative to control; assay type: functional
[17] = Effect on PSMB5 mRNA expression in human Jurkat-B cells expressing PSMB5 G322A mutant at 1000 nM relative to control; assay type: functional
[18] = test system: THP-1; assay: Effect on PSMB5 mRNA expression in human THP1 cells at 200 nM relative to control; assay type: functional
[19] = test system: THP-1; assay: Effect on PSMB5 mRNA expression in human THP1 cells at 100 nM relative to control; assay type: functional
[20] = test system: THP-1; assay: Effect on PSMB5 mRNA expression in human THP1 cells at 50 nM relative to control; assay type: functional
[21] = test system: THP-1; assay: Effect on PSMB5 mRNA expression in human THP1 cells at 30 nM relative to control; assay type: functional

Proteasome Macropain subunit (Homo sapiens), sequence (P49721 whole entry): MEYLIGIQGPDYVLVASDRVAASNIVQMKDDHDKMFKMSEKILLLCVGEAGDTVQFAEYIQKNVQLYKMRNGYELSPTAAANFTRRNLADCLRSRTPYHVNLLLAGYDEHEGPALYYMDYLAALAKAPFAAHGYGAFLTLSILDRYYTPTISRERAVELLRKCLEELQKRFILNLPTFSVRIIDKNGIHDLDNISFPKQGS

CC(C)C[C@H](NC(=O)[C@H](CCc1ccccc1)NC(=O)CN1CCOCC1)C(=O)N[C@@H](Cc1ccccc1)C(=O)N[C@@H](CC(C)C)C(=O)[C@@]1(C)CO1 [CARFILZOMIB]
Ratio [1]: < 100 M⁻¹ s⁻¹ | Ratio [2]: < 100 M⁻¹ s⁻¹ | Ratio [3]: 33000 M⁻¹ s⁻¹ | fold change (FC) [4]: 114 | Ratio IC50 [5]: 9.7

COC[C@H](NC(=O)c1cnc(C)s1)C(=O)N[C@@H](COC)C(=O)N[C@@H](Cc1ccccc1)C(=O)[C@@]1(C)CO1
fold change (FC) [4]: 23

CC(C)C[C@H](NC(=O)[C@@H](NC(=O)c1cccc(-c2ccccc2)n1)[C@@H](C)O)B(O)O [DELANZOMIB]
pIC50 [6]: 8.46

CC(C)C[C@H](NC(=O)[C@H](Cc1ccccc1)NC(=O)c1cnccn1)B(O)O [BORTEZOMIB]
fold change (FC) [7]: 1.3 | fold change (FC) [8]: 3 | fold change (FC) [9]: 3 | fold change (FC) [10]: 60 | fold change (FC) [11]: 60 | fold change (FC) [12]: 60 | fold change (FC) [13]: 60 | fold change (FC) [14]: 5 | fold change (FC) [15]: 15 | fold change (FC) [16]: 0.9 | fold change (FC) [17]: 1.7 | fold change (FC) [18]: 0.9 | fold change (FC) [19]: 0.6 | fold change (FC) [20]: 0.5 | fold change (FC) [21]: 0.4
